{"source": "patent US8592456B2", "about": "(4SC Discovery GmbH, priority 2011, dated 2013)", "data": [{"system": "PBMC (T cell proliferation)", "test": "T cell proliferation assay, PHA-stimulated human PBMC (BrdU ELISA)", "format": "cell-based", "conditions": "PHA-stimulated human PBMC, 48 hours, BrdU; column D; activity classes 1-4; read-out: IC50 (Tcell proliferation)", "procedure,_shortened": "(§1)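 Healthy-donor human PBMC, Ficoll-isolated, seeded 1×10^5 cells/well in RPMI1640 with 10% dialyzed FCS, stimulated with 2 μg/ml PHA alongside test compound. Proliferation read after 48 hours by BrdU ELISA.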", "units": {"IC50": "nM"}, "values": [{"smiles": "COc1cccc(Cl)c1-c1noc(-c2cnn(-c3cccnc3)c2C(F)(F)F)c1-c1cnco1", "note": "[IB-31, 3-(2-chloro-6-methoxyphenyl)-4-(oxazol-5-yl)-5-(1-(pyridin-3-yl)-5-(trifluoromethyl)-1H-pyrazol-4-yl)isoxazole]", "IC50": "1000 to 10000"}, {"smiles": "Cc1nnc(-c2c(-c3c(F)cccc3Cl)noc2-c2cnn(-c3ccccc3F)c2C(F)(F)F)s1", "note": "[Example I-12, 3-(2-chloro-6-fluorophenyl)-5-(1-(2-fluorophenyl)-5-(trifluoromethyl)-1H-pyrazol-4-yl)-4-(5-methyl-1,3,4-thiadiazol-2-yl)isoxazole]", "IC50": "100 to 1000"}, {"smiles": "Cc1nnc(-c2c(-c3c(F)cccc3Cl)noc2-c2cnn(-c3ccccc3Cl)c2C(F)(F)F)o1", "note": "[IB-18, 2-(3-(2-chloro-6-fluorophenyl)-5-(1-(2-chlorophenyl)-5-(trifluoromethyl)-1H-pyrazol-4-yl)isoxazol-4-yl)-5-methyl-1,3,4-oxadiazole]", "IC50": "1000 to 10000"}, {"smiles": "Fc1cccc(Cl)c1-c1noc(-c2cnn(-c3ccncc3)c2C(F)(F)F)c1-c1cnco1", "note": "[IB-33, 3-(2-chloro-6-fluorophenyl)-4-(oxazol-5-yl)-5-(1-(pyridin-4-yl)-5-(trifluoromethyl)-1H-pyrazol-4-yl)isoxazole]", "IC50": "1000 to 10000"}, {"smiles": "Fc1ccccc1-n1ncc(-c2onc(-c3c(F)cccc3Cl)c2-c2ccoc2)c1C(F)(F)F", "note": "[IB-9, 3-(2-chloro-6-fluorophenyl)-5-(1-(2-fluorophenyl)-5-(trifluoromethyl)-1H-pyrazol-4-yl)-4-(furan-3-yl)isoxazole]", "IC50": "100 to 1000"}]}, {"system": "PBMC (T cell proliferation)", "test": "T cell proliferation assay, PHA-stimulated human PBMC (BrdU ELISA)", "format": "cell-based", "conditions": "human PBMC, 2 μg/ml PHA, 48 hours, BrdU; read-out: D: IC50 (Tcell proliferation)", "procedure,_shortened": "as §1", "units": {"IC50": "nM"}, "values": [{"smiles": "O=C(c1c(-c2c(F)cccc2Cl)noc1-c1cnn(-c2cccc(F)c2)c1C(F)(F)F)N1CCCO1", "note": "[Example 118, (3-(2-chloro-6-fluorophenyl)-5-(1-(3-fluorophenyl)-5-(trifluoromethyl)-1H-pyrazol-4-yl)isoxazol-4-yl)(isoxazolidin-2-yl)methanone]", "IC50": "10 to 100"}, {"smiles": "O=C(c1c(-c2c(F)cccc2Cl)noc1-c1cnn(-c2cccc(F)c2)c1C(F)(F)F)N1CCOCC1", "note": "[Example 127, (3-(2-chloro-6-fluorophenyl)-5-(1-(3-fluorophenyl)-5-(trifluoromethyl)-1H-pyrazol-4-yl)isoxazol-4-yl)(morpholino)methanone]", "IC50": "1000 to 10000"}, {"smiles": "COC(=O)c1c(-c2c(F)cccc2Cl)noc1-c1cnn(-c2ncc(C(F)(F)F)cc2Cl)c1C(F)(F)F", "note": "[Example 87]", "IC50": "1000 to 10000"}, {"smiles": "CCOC(=O)c1c(-c2ccccc2F)noc1-c1cnn(-c2cccc(F)c2)c1C(F)(F)F", "note": "[Example 90, ethyl 3-(2-fluorophenyl)-5-(1-(3-fluorophenyl)-5-(trifluoromethyl)-1H-pyrazol-4-yl)isoxazole-4-carboxylate]", "IC50": "100 to 1000"}, {"smiles": "CC(=O)Nc1c(-c2c(F)cccc2Cl)noc1-c1cnn(-c2cccc(F)c2)c1C(F)(F)F", "note": "[Example 139, N-(3-(2-chloro-6-fluorophenyl)-5-(1-(3-fluorophenyl)-5-(trifluoromethyl)-1H-pyrazol-4-yl)isoxazol-4-yl)acetamide]", "IC50": "1000 to 10000"}, {"smiles": "CCOC(=O)c1c(-c2ccc(Cl)cc2Cl)noc1-c1cnn(-c2cccc(Cl)c2)c1C(F)(F)F", "note": "[Example B-46, ethyl 5-(1-(3-chlorophenyl)-5-(trifluoromethyl)-1H-pyrazol-4-yl)-3-(2,4-dichlorophenyl)-isoxazole-4-carboxylate]", "IC50": "100 to 1000"}, {"smiles": "CC(=O)Nc1c(-c2c(F)cccc2Cl)noc1-c1cnn(-c2cccc(Cl)c2)c1C(F)(F)F", "note": "[Example B-39, N-(3-(2-chloro-6-fluorophenyl)-5-(1-(3-chlorophenyl)-5-(trifluoromethyl)-1H-pyrazol-4-yl)-isoxazol-4-yl)acetamide]", "IC50": "1000 to 10000"}, {"smiles": "COC(=O)c1c(-c2ccccc2F)noc1-c1cnn(-c2cccc(Cl)c2)c1C(F)(F)F", "note": "[Example B-77, methyl 5-(1-(3-chlorophenyl)-5-(trifluoromethyl)-1H-pyrazol-4-yl)-3-(2-fluorophenyl)isoxazole-4-carboxylate]", "IC50": "10 to 100"}, {"smiles": "CCOC(=O)c1c(-c2c(F)cccc2Cl)noc1-c1cnn(-c2cccc(S(N)(=O)=O)c2)c1C(F)(F)F", "note": "[Example B-43, ethyl 3-(2-chloro-6-fluorophenyl)-5-(1-(3-sulfamoylphenyl)-5-(trifluoromethyl)-1H-pyrazol-4-yl)-isoxazole-4-carboxylate]", "IC50": "1000 to 10000"}, {"smiles": "O=C(O)c1c(-c2ccccc2F)noc1-c1cnn(-c2cccc(F)c2)c1C(F)(F)F", "note": "[Example 91, 3-(2-fluorophenyl)-5-(1-(3-fluorophenyl)-5-(trifluoromethyl)-1H-pyrazol-4-yl)isoxazole-4-carboxylic acid]", "IC50": "1000 to 10000"}, {"smiles": "CSC(=O)c1c(-c2c(F)cccc2Cl)noc1-c1cnn(-c2ccccc2F)c1C(F)(F)F", "note": "[Example 130, S-methyl 3-(2-chloro-6-fluorophenyl)-5-(1-(2-fluorophenyl)-5-(trifluoromethyl)-1H-pyrazol-4-yl)isoxazole-4-carbothioate]", "IC50": "< 10"}, {"smiles": "COC(=O)c1c(-c2c(F)cccc2Cl)noc1-c1cnn(-c2ccc(F)cc2)c1C(F)(F)F", "note": "[Example 3, methyl 3-(2-chloro-6-fluorophenyl)-5-(1-(4-fluorophenyl)-5-(trifluoromethyl)-1H-pyrazol-4-yl)isoxazole-4-carboxylate]", "IC50": "10 to 100"}, {"smiles": "NC(=S)c1c(-c2c(F)cccc2Cl)noc1-c1cnn(-c2ccccc2F)c1C(F)(F)F", "note": "[Example B-102, 3-(2-chloro-6-fluorophenyl)-5-(1-(2-fluorophenyl)-5-(trifluoromethyl)-1H-pyrazol-4-yl)isoxazole-4-carbothioamide]", "IC50": "100 to 1000"}, {"smiles": "COC(=O)c1c(-c2c(F)cccc2Cl)noc1-c1cnn(-c2c(Cl)cccc2Cl)c1C(F)(F)F", "note": "[Example 70, methyl 3-(2-chloro-6-fluorophenyl)-5-(1-(2,6-dichlorophenyl)-5-(trifluoromethyl)-1H-pyrazol-4-yl)isoxazole-4-carboxylate]", "IC50": "100 to 1000"}, {"smiles": "O=C(c1c(-c2c(F)cccc2Cl)noc1-c1cnn(-c2cccnc2)c1C(F)(F)F)N1CCCO1", "note": "[Example B-54, (3-(2-chloro-6-fluorophenyl)-5-(1-(pyridin-3-yl)-5-(trifluoromethyl)-1H-pyrazol-4-yl)isoxazol-4-yl)(isoxazolidin-2-yl)methanone]", "IC50": "1000 to 10000"}, {"smiles": "COC(=O)c1c(-c2ccc(OC)cc2)noc1-c1cnn(-c2cccc(F)c2)c1C(F)(F)F", "note": "[Example 107, methyl 5-(1-(3-fluorophenyl)-5-(trifluoromethyl)-1H-pyrazol-4-yl)-3-(4-methoxyphenyl)isoxazole-4-carboxylate]", "IC50": "1000 to 10000"}, {"smiles": "CCOC(=O)c1c(-c2onc(-c3c(F)cccc3Cl)c2C(=O)OC)cnn1-c1cc(F)cc(F)c1", "note": "[Example 39, methyl 3-(2-chloro-6-fluorophenyl)-5-(1-(3,5-difluorophenyl)-5-(ethoxycarbonyl)-1-H-pyrazol-4-yl)isoxazole-4-carboxylate]", "IC50": "1000 to 10000"}, {"smiles": "CNC(=S)c1c(-c2c(F)cccc2Cl)noc1-c1cnn(-c2cccc(F)c2)c1C(F)(F)F", "note": "[Example 122, 3-(2-chloro-6-fluorophenyl)-5-(1-(3-fluorophenyl)-5-(trifluoromethyl)-1H-pyrazol-4-yl)-N-methylisoxazole-4-carbothioamide]", "IC50": "100 to 1000"}, {"smiles": "CCOC(=O)c1c(-c2onc(-c3c(F)cccc3Cl)c2C(=O)OC)cnn1-c1ccccc1", "note": "[Example 34, methyl 3-(2-chloro-6-fluorophenyl)-5-(5-(ethoxycarbonyl)-1-phenyl-1Hpyrazol-4-yl)isoxazole-4-carboxylate]", "IC50": "1000 to 10000"}, {"smiles": "CC(C)OC(=O)c1c(-c2c(F)cccc2Cl)noc1-c1cnn(-c2ccccc2Cl)c1C(F)(F)F", "note": "[Example B-60]", "IC50": "1000 to 10000"}, {"smiles": "O=C(Nc1c(-c2c(F)cccc2Cl)noc1-c1cnn(-c2cccc(F)c2)c1C(F)(F)F)C(F)(F)F", "note": "[Example B-22, N-(3-(2-chloro-6-fluorophenyl)-5-[1-(3-fluorophenyl)-5-(trifluoromethyl)-1H-pyrazol-4-yl]-1,2-oxazol-4-yl)-2,2,2-trifluoroacetamide]", "IC50": "1000 to 10000"}, {"smiles": "CON(C)C(=O)c1c(-c2ccccc2F)noc1-c1cnn(-c2cccc(F)c2)c1C(F)(F)F", "note": "[Example 94, 3-(2-fluorophenyl)-5-(1-(3-fluorophenyl)-5-(trifluoromethyl)-1H-pyrazol-4-yl)-N-methoxy-N-methylisoxazole-4-carboxamide]", "IC50": "1000 to 10000"}, {"smiles": "CSC(=O)c1c(-c2c(F)cccc2Cl)noc1-c1cnn(-c2cccc(F)c2)c1C(F)(F)F", "note": "[Example 128, S-methyl 3-(2-chloro-6-fluorophenyl)-5-(1-(3-fluorophenyl)-5-(trifluoromethyl)-1H-pyrazol-4-yl)isoxazole-4-carbothioate]", "IC50": "< 10"}, {"smiles": "COc1ccc(-c2noc(-c3cnn(-c4cccc(F)c4)c3C(F)(F)F)c2C(=O)O)cc1", "note": "[Example 108, 5-(1-(3-fluorophenyl)-5-(trifluoromethyl)-1H-pyrazol-4-yl)-3-(4-methoxyphenyl)isoxazole-4-carboxylic acid]", "IC50": "1000 to 10000"}, {"smiles": "CCOC(=O)c1c(-c2ccccc2F)noc1-c1cnn(-c2cccc(Cl)c2)c1C(F)(F)F", "note": "[Example B-47, ethyl 5-(1-(3-chlorophenyl)-5-(trifluoromethyl)-1H-pyrazol-4-yl)-3-(2-fluorophenyl)isoxazole-4-carboxylate]", "IC50": "10 to 100"}, {"smiles": "O=C(c1c(-c2c(F)cccc2Cl)noc1-c1cnn(-c2ccccc2F)c1C(F)(F)F)N1CCN(Cc2cccc(Cl)c2)CC1", "note": "[Example 24, (3-(2-chloro-6-fluorophenyl)-5-(1-(2-fluorophenyl)-5-(trifluoromethyl)-1H-pyrazol-4-yl)isoxazol-4-yl)(4-(3-chlorobenzyl)piperazin-1-yl)methanone]", "IC50": "100 to 1000"}, {"smiles": "CC(C)OC(=O)c1c(-c2c(F)cccc2Cl)noc1-c1cnn(-c2cccc(S(N)(=O)=O)c2)c1C(F)(F)F", "note": "[Example B-73, isopropyl 3-(2-chloro-6-fluorophenyl)-5-(1-(3-sulfamoylphenyl)-5-(trifluoromethyl)-1H-pyrazol-4-yl)isoxazole-4-carboxylate]", "IC50": "1000 to 10000"}]}]}
